Measurements as given in patent publication US4616015A, “Triazine derivatives, and pharmaceutical compositions comprising the same” (Fujisawa Pharmaceutical Co., Ltd., priority 1983, dated 1986).
Counter-ions that a name gives are not always drawn.

How the values were obtained:
[1] = system: blood pressure; assay: Antihypertensive activity (test A): maximum decrease of blood pressure in uninephrectomized DOCA/saline hypertensive rats, oral; format: in vivo, male Wister rats
Method: Five-week old male Wister rats were uninephrectomized under anesthesia. Deoxycorticosterone acetate (DOCA) (30 mg/kg), suspended in peanut oil, was injected subcutaneously twice a week and 1% saline was substituted for the drinking water. Animals with mean blood pressure 150-200 mmHg were used for experiment between 5 and 7 weeks after surgery.
The test compounds were administered orally. Blood pressure was measured at the femoral artery by means of a pressure transducer and recorded as electrically integrated values of mean arterial pressure.

[2] = system: platelet aggregation; assay: Inhibition of platelet aggregation induced by collagen, platelet rich plasma (test B); format: cell-based; settings: Oryctolagus cuniculus, inducer collagen (2.5 μg/ml), rabbit PRP, 37° C., read-out: ID50, platelet aggregation, collagen
Method: (§1) Platelet rich plasma (PRP) which contains 6.5-7.5×10^8 platelet/ml was prepared from rabbit blood. To the 200 μl of PRP, 5 μl of calcium chloride (1 mM) and 50 μl of pH 7.4 Tris-acetate solution (5 mM) containing 120 mM NaCl and test compound were added successively, and then stirred for 2 min. at 37° C. To the solution, 5 μl of adenosine diphosphate (ADP) (2.5 μM) or collagen (2.5 μg/ml) was added as an aggregation inducer. Aggregation was measured by using an aggregometer (NKK HEMA TRACER 1).

[3] = system: platelet aggregation; assay: Inhibition of platelet aggregation induced by ADP, platelet rich plasma (test B); format: cell-based; settings: Oryctolagus cuniculus, inducer ADP (2.5 μM), rabbit PRP, 37° C., read-out: ID50, platelet aggregation, ADP
Method: as §1

[4] = system: ethanol ulcer; assay: Ethanol ulcer, area of ulcers (test C); format: in vivo, male Sprague-Dowley rats; settings: dose c: 32 mg/kg, oral, 30 minutes before ethanol
Method: Five male Sprague-Dowley rats, aged 7 weeks and weighing about 200 g, were used per group for the study on ethanol ulcer after the fast for 24 hours.
Test compound was suspended in 0.1% methylcellulose aqueous solution, and the suspension (5 ml/kg) was orally given to each rat.
The control group was given a vehicle, i.e. 0.1% methylcellulose aqueous solution (5 ml/kg), alone in the same way.
Absolute ethanol (5 ml/kg) was orally administered 30 minutes after dosing with test compound, and one hour later, the rats were sacrificed and their stomachs were removed. The area of ulcers of each rat was measured. The mean area (mm^2) in the medicated group was compared with that in the control group.

| IC50 [2] [nM] | IC50 [3] [nM] | SMILES | Effect Max (mean ratio of maximum decrease of blood pressure) ([1]; dose a: 0.1 mg/kg) [%] | Effect Max (mean ratio of maximum decrease of blood pressure) ([1]; dose b: 1 mg/kg) [%] | Effect Max (ulcer area vs control) [4] [%] |
| --- | --- | --- | --- | --- | --- |
|  |  | CC(Cl)C(=O)Nc1ccc(C2=NNC(=O)NC2C)cc1 (stereo not drawn) [5-(7), 6-[4-(2-Chloropropionylamino)phenyl]-5-methyl-4,5-dihydro-1,2,4-triazin-3(2H)-one] | 18.7 | 51.8 |  |
| 5.3 | 110 | CC(=O)C(=O)Nc1ccc(C2=NNC(=O)NC2C)cc1 (stereo not drawn) [5-(19), 6-(4-Pyruvoylaminophenyl)-5-methyl-4,5-dihydro-1,2,4-triazin-3(2H)-one] |  |  |  |
| 150 | 320 | CC1NC(=O)NN=C1c1ccc(NC(=O)[C@@H](C)O)cc1 (stereo partly drawn) [13-(3), 6-(4-D-Lactoylaminophenyl)-5-methyl-4,5-dihydro-1,2,4-triazin-3(2H)-one] | 22 | 50 |  |
|  |  | CC1NC(=O)NN=C1c1ccc(NC(=O)CCC(=O)O)cc1 (stereo not drawn) [13-(4), Sodium 3-[4-(3-methyl-4,5-dihydro-3(2H)-oxo-1,2,4-triazin-6-yl)phenylcarbamoyl]propionate] |  |  | 67.0 |
| 47 | 190 | CC1NC(=O)NN=C1c1ccc(NCCCN)cc1 (stereo not drawn) [21-(1), 6-[4-(3-aminopropylamino)phenyl]-5-methyl-4,5-dihyro-1,2,4-triazin-3(2H)-one] |  |  |  |
| 16 | 68 | C=CC(=O)Nc1ccc(C2=NNC(=O)NC2C)cc1 (stereo not drawn) [22-(1), 6-(4-Acryloylaminophenyl)-5-methyl-4,5-dihydro-1,2,4-triazin-3(2H)-one] |  |  |  |
|  |  | CC1NC(=O)NN=C1c1ccc(NC(=O)CN)cc1 (stereo not drawn) [Example 29, 6-(4-glycyclaminophenyl)-5-methyl-4,5-dihydro-1,2,4-triazin-3(2H)-one hydrochloride] | 11.1 | 47.5 |  |
